Measurements from patent US10793557B2, “Sting agonist compounds” (Merck Sharp & Dohme Corp., priority 2018, dated 2020).

Assays:
[1] = test system: secretion of interferon-beta from THP1 cells; experiment: IFN-β secretion in THP1 cell culture (5 h); format: cell-based; settings: Homo sapiens, THP-1, 5 h, 30 uM cGAMP = 100%; for activation at 3 µM: compound at 3 uM, read-out: % Effect relative to 2′3′-cGAMP (@ 3 uM); for activation at 30 µM: compound at 30 μM, read-out: % Effect at 30 μM relative to 2′3′-cGAMP
In short: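 IFN-β in supernatant measured by AlphaLISA after a 5 h, 37 °C incubation of THP1 cells with compound (10 concentrations, 30000 down to 1.5 nM, 0.3% DMSO) in low-serum RPMI. Values scaled between DMSO and 30 uM cGAMP controls; 4-parameter curve fit yields EC50.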

full-length HAQ STING = target: T1, full-length HAQ STING (Homo sapiens, UniProt Q86WV6, G230A/H232R/R293Q/R71H); experiment: 3H-cGAMP filtration binding assay (HAQ STING); settings: for EC50: competition with tritiated cGAMP, HAQ STING membrane
T1 construct: AviTag (after GG linker) (C); HRV3C cleavage site (after GS linker) (C); HIS8 (C); made in house; host or cells: Trichoplusia ni (Hi-Five) insect cells infected with baculovirus (virus generated and amplified in Sf21 cells); used as a washed membrane preparation
T1 sequence (Q86WV6 with tags, fused parts or gaps R71H/G230A/H232R/R293Q): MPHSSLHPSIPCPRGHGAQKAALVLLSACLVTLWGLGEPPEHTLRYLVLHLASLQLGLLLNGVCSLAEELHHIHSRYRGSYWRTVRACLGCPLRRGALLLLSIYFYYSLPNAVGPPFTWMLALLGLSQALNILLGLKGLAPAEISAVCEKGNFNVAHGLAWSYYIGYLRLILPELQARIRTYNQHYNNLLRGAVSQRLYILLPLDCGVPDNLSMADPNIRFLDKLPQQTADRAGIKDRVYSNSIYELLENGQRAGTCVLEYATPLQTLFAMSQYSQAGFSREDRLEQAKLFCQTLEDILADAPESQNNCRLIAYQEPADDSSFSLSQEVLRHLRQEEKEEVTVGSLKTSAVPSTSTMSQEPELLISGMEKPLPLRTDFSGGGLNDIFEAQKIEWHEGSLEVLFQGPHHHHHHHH
In short: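 Hi-Five (T. ni) membranes overexpressing the STING variant (2.2 ug/ml working) preincubated with compound 60 min at RT in PBS, then [3H]cGAMP (8 nM working stock) added for 60 min at RT. Bound radioactivity captured on GF/B filters and counted by scintillation; EC50 from 4-parameter fit of control-normalized activity.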

full-length WT STING = target: T2, full-length WT STING (Homo sapiens, UniProt Q86WV6, H232R); experiment: 3H-cGAMP filtration binding assay (WT STING); settings: for EC50: competition with tritiated cGAMP, WT STING membrane
T2 construct: AviTag (after gg linker) (C); HRV3C cleavage site (after gs linker) (C); HIS8 (C); made in house; host or cells: Trichoplusia ni (Hi-Five) insect cells infected with baculovirus (virus generated and amplified in Sf21 cells); used as a washed membrane preparation
T2 sequence (Q86WV6 with tags, fused parts or gaps H232R): as the sequence (Q86WV6 with tags, fused parts or gaps R71H/G230A/H232R/R293Q) above, with H71R, A230G, Q293R counted along it
In short: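 EC50 values come from 4-parameter fits of remaining filter-bound tritium versus log concentration (10-point, 1:3 dilution). Insect-cell membranes carrying full-length WT STING were incubated 60 min at RT with compound and tritiated cGAMP (16 nM working stock) before filtration.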

SMILES | activation at 3 µM [1] [%] | EC50 (full-length HAQ STING) [nM] | EC50 (full-length WT STING) [nM] | activation at 30 µM [1] [%] | inhibition at 2 µM (full-length HAQ STING; at 2,000 nM compound) [%] | inhibition at 2 µM (full-length WT STING; at 2,000 nM compound) [%] | inhibition at 20 µM (full-length HAQ STING; at 20,000 nM compound) [%] | inhibition at 20 µM (full-length WT STING; at 20,000 nM compound) [%]
COc1cc2sc(C(=O)C[C@H](C)C(=O)O)cc2c(F)c1OCCCOc1c(O)cc2sc(C(=O)C[C@H](C)C(=O)O)cc2c1Cl [Example 185, (S)-4-(5-(3-((2-((S)-3-carboxybutanoyl)-4-chloro-6-hydroxybenzo[b]thiophen-5-yl)oxy)propoxy)-4-fluoro-6-methoxybenzo[b]thiophen-2-yl)-2-methyl-4-oxobutanoic acid] | 122 | 1 | 1 |  |  |  |  | 
COc1cc2sc(C(=O)C[C@H](C)C(=O)O)cc2cc1OCCCCOc1cc2sc(C(=O)C[C@H](C)C(=O)O)cc2cc1OC [Example 94, (S)-4-(5-(4-((2-((S)-3-carboxybutanoyl)-5-methoxybenzo[b]thiophen-6-yl)oxy)butoxy)-6-methoxybenzo[b]thiophen-2-yl)-2-methyl-4-oxobutanoic acid] |  | 6 | 131 | 100 |  |  |  | 
COc1cc2sc(C(=O)CCC(=O)O)cc2nc1OCCCc1ccc2sc(C(=O)CCC(=O)O)cc2c1 [Example 4, 4-(5-(3-((2-(3-carboxypropanoyl)-6-methoxythieno [3,2-b]pyridin-5-yl)oxy)propyl)benzo[b]thiophen-2-yl)-4-oxobutanoic acid] |  | 6 | 33 | 93 |  |  |  | 
COc1cc2cc(C(=O)C[C@H](C)C(=O)O)sc2cc1OCCCOc1ccc2sc(C(=O)CCC(=O)O)cc2c1 [Example 46, (S)-4-(6-(3-((2-(3-carboxypropanoyl)benzo[b]thiophen-5-yl)oxy)propoxy)-5-methoxybenzo[b]thiophen-2-yl)-2-methyl-4-oxobutanoic acid] |  | 133 | 394 | 60 |  |  |  | 
COc1cc2sc(CC[C@H](C)C(=O)O)cc2c(Cl)c1OCCCOc1c(OC)cc2sc(C(=O)C[C@H](C)C(=O)O)cc2c1Cl [Example 152, (S)-4-(5-(3-((2-((S)-3-carboxybutyl)-4-chloro-6-methoxybenzo[b]thiophen-5-yl)oxy)propoxy)-4-chloro-6-methoxybenzo[b]thiophen-2-yl)-2-methyl-4-oxobutanoic acid] | 7 |  |  |  | 35 | 3 |  | 
COc1cc2sc(C(=O)C[C@H](C)C(=O)O)cc2c(F)c1OCCCOc1c(OC)cc2sc(C(=O)C[C@H](C)C(=O)O)cc2c1F [Example 156, (2S,2′S)-4,4′-((propane-1,3-diylbis(oxy))bis(4-fluoro-6-methoxybenzo[b]thiophene-5,2-diyl))bis(2-methyl-4-oxobutanoic acid)] | 118 | 1 | 1 |  |  |  |  | 
COc1cc2sc(C(=O)CCC(N)=O)cc2cc1CCCc1cc2cc(C(=O)CCC(=O)O)sc2cc1OC [Example 30, 4-(5-(3-(2-(4-amino-4-oxobutanoyl)-6-methoxybenzo[b]thiophen-5-yl)propyl)-6-methoxybenzo [b]thiophen-2-yl)-4-oxobutanoic acid] |  | 1000 | 7520 | 103 |  |  |  | 
COc1cc2cc(C(=O)C[C@H](C)C(=O)O)sc2cc1OCCCOc1cc2sc(C(=O)C[C@H](C)C(=O)O)cc2cc1OC [Example 47, (2S,2′S)-4,4′-((propane-1,3-diylbis(oxy))bis(5-methoxybenzo[b]thiophene-6,2-diyl))bis(2-methyl-4-oxobutanoic acid)] |  | 14 | 81 | 62 |  |  |  | 
COc1cc2cc(C(=O)C[C@H](C)C(=O)O)sc2cc1OCCCOc1c(OC)cc2sc(C(=O)CCC(=O)O)cc2c1F [Example 73, (S)-4-(6-(3-((2-(3-carboxypropanoyl)-4-fluoro-6-methoxybenzo[b]thiophen-5-yl)oxy)propoxy)-5-methoxybenzo[b]thiophen-2-yl)-2-methyl-4-oxobutanoic acid] |  | 1 | 4 | 67 |  |  |  | 
COc1cc2sc(C(=O)C[C@H](C)C(=O)O)cc2c(F)c1OCCCCCOc1c(OC)cc2sc(C(=O)C[C@H](C)C(=O)O)cc2c1F [Example 120, (2S,2′S)-4,4′-(5,5′-(pentane-1,5-diylbis(oxy))bis(4-fluoro-6-methoxybenzo[b]thiophene-5,2-diyl))bis(2-methyl-4-oxobutanoic acid)] | 45 | 38 | 698 |  |  |  |  | 
COc1cc2sc(C(=O)CCC(=O)O)cc2cc1OCCCc1ccc2sc(C(=O)CCC(=O)O)cc2c1 [Example 6, 4-(5-(3-((2-(3-carboxypropanoyl)-6-methoxybenzo [b]thiophen-5-yl)oxy)propyl)benzo[b]thiophen-2-yl)-4-oxobutanoic acid] |  | 53 | 206 | 106 |  |  |  | 
COc1cc2sc(C(=O)CCC(=O)O)cc2cc1CCCNc1cc2cc(C(=O)C[C@H](C)C(=O)O)sc2cc1OC [Example 177, (S)-4-(5-((3-(2-(3-carboxypropanoyl)-6-methoxybenzo[b]thiophen-5-yl)propyl)amino)-6-methoxybenzo[b]thiophen-2-yl)-2-methyl-4-oxobutanoic acid] |  | 68 | 720 | 80 |  |  |  | 
COc1cc2sc(C(=O)CCC(=O)O)cc2c(F)c1OCCOc1c(OC)cc2sc(C(=O)CCC(=O)O)cc2c1F [Example 65, 4,4′-((ethane-1,2-diylbis(oxy))bis(4-fluoro-6-methoxybenzo[b]thiophene-5,2-diyl))bis(4-oxobutanoic acid)] |  | 1 | 1 | 105 |  |  |  | 
COc1cc2sc(C(=O)CCC(=O)O)cc2cc1CCCc1cc2cc(C(=O)CCC(=O)O)sc2cc1OC [Example 25, 4,4′-(5,5′-(propane-1,3-diyl)bis(6-methoxybenzo[b]thiophene-5,2-diyl))bis(4-oxobutanoic acid)] |  | 6 | 23 | 136 |  |  |  | 
COc1cc2sc(C(=O)CCC(=O)O)cc2c(F)c1OCCCCCOc1c(OC)cc2sc(C(=O)CCC(=O)O)cc2c1F [Example 117, 4,4′-(5,5′-(pentane-1,5-diylbis(oxy))bis(4-fluoro-6-methoxybenzo[b]thiophene-5,2-diyl))bis(4-oxobutanoic acid)] |  | 340 | 2640 | 123 |  |  |  | 
COc1cc2sc(C(=O)C[C@H](C)C(=O)O)cc2cc1CCCOc1c(OC)cc2sc(C(=O)C[C@H](C)C(=O)O)cc2c1F [Example 37, (S)-4-(5-(3-((2-((S)-3-carboxybutanoyl)-4-fluoro-6-methoxybenzo[b]thiophen-5-yl)oxy)propyl)-6-methoxybenzo[b]thiophen-2-yl)-2-methyl-4-oxobutanoic acid] |  | 1 | 2 | 76 |  |  |  | 
COc1cc2sc(C(=O)C[C@H](C)C(=O)O)cc2c(F)c1OCCOc1c(OC)cc2sc(C(=O)C[C@H](C)C(=O)O)cc2c1F [Example 50, (2S,2′S)-4,4′-((ethane-1,2-diylbis(oxy))bis(4-fluoro-6-methoxybenzo[b]thiophene-5,2-diyl))bis(2-methyl-4-oxobutanoic acid)] |  | 1 | 1 | 44 |  |  |  | 
COC(=O)[C@@H](C)CC(=O)c1cc2cc(OCCCOc3cc4cc(C(=O)C[C@H](C)C(=O)OC)sc4cc3OC)c(OC)cc2s1 [Example 49, dimethyl 4,4′-((propane-1,3-diylbis(oxy))bis(6-methoxybenzo[b]thiophene-5,2-diyl))(2S,2′S)-bis(2-methyl-4-oxobutanoate)] |  |  |  | 17 |  |  | 44 | 34
COc1cc2sc(C(=O)CCC(=O)O)cc2cc1CCCOc1c(OC)cc2sc(C(=O)CCC(=O)O)cc2c1F [Example 32, 4-(5-(3-((2-(3-carboxypropanoyl)-4-fluoro-6-methoxybenzo[b]thiophen-5-yl)oxy)propyl)-6-methoxybenzo [b]thiophen-2-yl)-4-oxobutanoic acid] |  | 4 | 9 | 117 |  |  |  | 
COc1cc2sc(C(=O)C[C@H](C)C(=O)O)cc2cc1CCCOc1nc2cc(C(=O)CCC(=O)O)sc2cc1OC [Example 14, (S)-4-(5-(3-((2-(3-carboxypropanoyl)-6-methoxythieno[3,2-b]pyridin-5-yl)oxy)propyl)-6-methoxybenzo[b]thiophen-2-yl)-2-methyl-4-oxobutanoic acid] |  | 3 | 21 | 77 |  |  |  | 
COc1cc2sc(C(=O)C[C@H](C)C(=O)O)cc2c(F)c1OCCCOc1cc2sc(C(=O)C[C@H](C)C(=O)O)cc2nc1OC [Example 167, (S)-4-(6-(3-((2-((S)-3-carboxybutanoyl)-4-fluoro-6-methoxybenzo[b]thiophen-5-yl)oxy)propoxy)-5-methoxythieno[3,2-b]pyridin-2-yl)-2-methyl-4-oxobutanoic acid] |  | 4 | 19 | 66 |  |  |  | 
